Measurements taken from US20250195463A1, “ORGANOMETALLIC COMPLEX, CONTROLLED-RELEASE MULTI-FUNCTIONAL DRUG, PHARMACEUTICAL COMPOSITION, PROCESSES FOR THE PREPARATION THEREOF AND THEIR USE” (FACULDADE DE CIÊNCIAS DA UNIVERSIDADE DE LISBOA, priority 2022, published 2025).

Tests used:
[1] = Stability in organic medium (dimethyl sulfoxide) by UV-Vis spectroscopy; assay type: physicochemical; conditions: band 357-425 nm (λmax in column head)
Procedure: (§1) The stability of the complexes 4-11 in organic and aqueous media was evaluated over 24 h by UV-Vis spectroscopy at room temperature, in dark, on a Jasco V-660 spectrometer using quartz cuvettes (1 cm optical path length). The electronic spectra (270-900 nm) were acquired at regular periods of time (0 h, 0.25 h, 0.5 h, 0.75 h, 1 h, 2 h, 3 h, 4 h, 5 h, 6 h, 24 h) for solutions of 100% dimethyl sulfoxide (complexes 4-11) and 5% dimethyl sulfoxide/95% Dulbecco's Modified Eagle Medium (complexes 4, 5 and 8-11) or 10% dimethyl sulfoxide/90% Dulbecco's Modified Eagle Medium (complexes 6 and 7) at concentrations ranging from 7.0×10^-5 M to 3.0×10^-4 M.

[2] = Stability in aqueous medium (dimethyl sulfoxide/Dulbecco's Modified Eagle Medium) by UV-Vis spectroscopy; assay type: physicochemical; conditions: 10% dimethyl sulfoxide/90% Dulbecco's Modified Eagle Medium; for Relative variation of the maximum absorbance of the π→π* transitions: band 292-296 nm (λmax in column head); for Relative variation of the maximum absorbance of the charge transfer bands: band 358-400 nm (λmax in column head)
Procedure: as §1

Compound: CC(=O)C1=C[CH]([Ru-]2([PH](c3ccccc3)(c3ccccc3)c3ccccc3)[n+]3cccc4ccc5ccc[n+]2c5c43)C=C1.O=S(=O)([O-])C(F)(F)F (stereo not drawn) [compound 6]
- Relative variation of the maximum absorbance of the charge transfer bands ([1]; time 0 h): 0.0%
- Relative variation of the maximum absorbance of the charge transfer bands ([1]; time 0.25 h): −0.1%
- Relative variation of the maximum absorbance of the charge transfer bands ([1]; time 0.5 h): 0.2%
- Relative variation of the maximum absorbance of the charge transfer bands ([1]; time 0.75 h): 0.0%
- Relative variation of the maximum absorbance of the charge transfer bands ([1]; time 1 h): 0.9%
- Relative variation of the maximum absorbance of the charge transfer bands ([1]; time 2 h): 2.6%
- Relative variation of the maximum absorbance of the charge transfer bands ([1]; time 3 h): 1.3%
- Relative variation of the maximum absorbance of the charge transfer bands ([1]; time 4 h): 1.5%
- Relative variation of the maximum absorbance of the charge transfer bands ([1]; time 5 h): −0.2%
- Relative variation of the maximum absorbance of the charge transfer bands ([1]; time 6 h): −0.3%
- Relative variation of the maximum absorbance of the charge transfer bands ([1]; time 24 h): 0.3%
- Relative variation of the maximum absorbance of the π→π* transitions ([2]; time 0 h): 0.0%
- Relative variation of the maximum absorbance of the charge transfer bands ([2]; time 0 h): 0.0%
- Relative variation of the maximum absorbance of the π→π* transitions ([2]; time 0.25 h): −0.4%
- Relative variation of the maximum absorbance of the charge transfer bands ([2]; time 0.25 h): 0.0%
- Relative variation of the maximum absorbance of the π→π* transitions ([2]; time 0.5 h): 0.4%
- Relative variation of the maximum absorbance of the charge transfer bands ([2]; time 0.5 h): 0.4%
- Relative variation of the maximum absorbance of the π→π* transitions ([2]; time 0.75 h): 0.3%
- Relative variation of the maximum absorbance of the charge transfer bands ([2]; time 0.75 h): 0.3%
- Relative variation of the maximum absorbance of the π→π* transitions ([2]; time 1 h): −0.2%
- Relative variation of the maximum absorbance of the charge transfer bands ([2]; time 1 h): 0.0%
- Relative variation of the maximum absorbance of the π→π* transitions ([2]; time 2 h): 1.0%
- Relative variation of the maximum absorbance of the charge transfer bands ([2]; time 2 h): 0.6%
- Relative variation of the maximum absorbance of the π→π* transitions ([2]; time 3 h): 2.0%
- Relative variation of the maximum absorbance of the charge transfer bands ([2]; time 3 h): 0.8%
- Relative variation of the maximum absorbance of the π→π* transitions ([2]; time 4 h): 2.1%
- Relative variation of the maximum absorbance of the charge transfer bands ([2]; time 4 h): 0.8%
- Relative variation of the maximum absorbance of the π→π* transitions ([2]; time 5 h): 1.3%
- Relative variation of the maximum absorbance of the charge transfer bands ([2]; time 5 h): 0.4%
- Relative variation of the maximum absorbance of the π→π* transitions ([2]; time 6 h): 1.5%
- Relative variation of the maximum absorbance of the charge transfer bands ([2]; time 6 h): 0.2%
- Relative variation of the maximum absorbance of the π→π* transitions ([2]; time 24 h): 5.3%
- Relative variation of the maximum absorbance of the charge transfer bands ([2]; time 24 h): 1.8%

Compound: CC(=O)C1=C[CH]([Ru-]2([PH](c3ccccc3)(c3ccccc3)c3ccccc3)[n+]3cccc4c5nccnc5c5ccc[n+]2c5c43)C=C1.O=S(=O)([O-])C(F)(F)F (stereo not drawn) [compound 7]
- Relative variation of the maximum absorbance of the charge transfer bands ([1]; time 0 h): 0.0%
- Relative variation of the maximum absorbance of the charge transfer bands ([1]; time 0.25 h): 0.0%
- Relative variation of the maximum absorbance of the charge transfer bands ([1]; time 0.5 h): −0.1%
- Relative variation of the maximum absorbance of the charge transfer bands ([1]; time 0.75 h): −0.1%
- Relative variation of the maximum absorbance of the charge transfer bands ([1]; time 1 h): −0.1%
- Relative variation of the maximum absorbance of the charge transfer bands ([1]; time 2 h): −0.3%
- Relative variation of the maximum absorbance of the charge transfer bands ([1]; time 3 h): −0.2%
- Relative variation of the maximum absorbance of the charge transfer bands ([1]; time 4 h): −0.5%
- Relative variation of the maximum absorbance of the charge transfer bands ([1]; time 5 h): −0.3%
- Relative variation of the maximum absorbance of the charge transfer bands ([1]; time 6 h): −0.4%
- Relative variation of the maximum absorbance of the charge transfer bands ([1]; time 24 h): −0.3%
- Relative variation of the maximum absorbance of the π→π* transitions ([2]; time 0 h): 0.0%
- Relative variation of the maximum absorbance of the charge transfer bands ([2]; time 0 h): 0.0%
- Relative variation of the maximum absorbance of the π→π* transitions ([2]; time 0.25 h): 0.0%
- Relative variation of the maximum absorbance of the charge transfer bands ([2]; time 0.25 h): 0.3%
- Relative variation of the maximum absorbance of the π→π* transitions ([2]; time 0.5 h): 0.1%
- Relative variation of the maximum absorbance of the charge transfer bands ([2]; time 0.5 h): 0.4%
- Relative variation of the maximum absorbance of the π→π* transitions ([2]; time 0.75 h): 0.3%
- Relative variation of the maximum absorbance of the charge transfer bands ([2]; time 0.75 h): 0.6%
- Relative variation of the maximum absorbance of the π→π* transitions ([2]; time 1 h): 0.1%
- Relative variation of the maximum absorbance of the charge transfer bands ([2]; time 1 h): 0.5%
- Relative variation of the maximum absorbance of the π→π* transitions ([2]; time 2 h): 0.1%
- Relative variation of the maximum absorbance of the charge transfer bands ([2]; time 2 h): 0.5%
- Relative variation of the maximum absorbance of the π→π* transitions ([2]; time 3 h): 0.0%
- Relative variation of the maximum absorbance of the charge transfer bands ([2]; time 3 h): 0.4%
- Relative variation of the maximum absorbance of the π→π* transitions ([2]; time 4 h): −0.3%
- Relative variation of the maximum absorbance of the charge transfer bands ([2]; time 4 h): 0.5%
- Relative variation of the maximum absorbance of the π→π* transitions ([2]; time 5 h): −0.2%
- Relative variation of the maximum absorbance of the charge transfer bands ([2]; time 5 h): 0.5%
- Relative variation of the maximum absorbance of the π→π* transitions ([2]; time 6 h): 0.0%
- Relative variation of the maximum absorbance of the charge transfer bands ([2]; time 6 h): 0.4%
- Relative variation of the maximum absorbance of the π→π* transitions ([2]; time 24 h): 0.3%
- Relative variation of the maximum absorbance of the charge transfer bands ([2]; time 24 h): 1.3%
